Where “and” joins values, the source holds several entries; their conditions need not be identical. Equal entries are not always repeated. Inconclusive results are not listed.
System: MX-1 breast xenograft, intrarenal, nude mice, tumor weight
Assay: NCI In Vivo Anticancer Drug Screen. Data for tumor model Human Mammary Carcinoma MX-1 Xenograft (intrarenal inoculation) in NU/NU BALB/C (nude) mice
Conditions: endpoint: mean tumor weight change, higher = larger tumour
Summary of the method: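 Mice w/ transplanted tumors, drug vs vehicle; endpoint survival or tumor size; value = T/C.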

## C=C1C(O)C2(O)OCC34C(CC5C(C)=CC(=O)C(O)C5(C)C23)OC(=O)C(OC(=O)C/C=C/CCCCCCCC)C14 (configuration not stated)
dose: 12.5 mg/kg/injection, schedule: Q04DX003 (ip), vehicle: saline + alcohol
  T/C: 38 % of control

## CCCCCCCCCCC(OC(C)=O)C1CCC(C2CCC(C(O)CCCCCCCCCCCCC3C=C(C)OC3=O)O2)O1 (configuration not stated)
dose: 20.0 mg/kg/injection, schedule: Q04DX003 (sc), vehicle: water
  T/C: 80 % of control
dose: 40.0 mg/kg/injection, schedule: Q04DX003 (sc), vehicle: water
  T/C: 72 % of control
dose: 80.0 mg/kg/injection, schedule: Q04DX003 (sc), vehicle: water
  T/C: 71 % of control
dose: 160.0 mg/kg/injection, schedule: Q04DX003 (sc), vehicle: water
  T/C: 70 % of control

## O=C(NC(Cc1ccc(I)cc1)C(=O)O)c1ccc(Br)cc1 (configuration not stated)
dose: 37.5 mg/kg/injection, schedule: Q04DX003 (ip), vehicle: sodium bicarbonate
  T/C: 92 % of control
dose: 150.0 mg/kg/injection, schedule: Q04DX003 (ip), vehicle: sodium bicarbonate
  T/C: 87 % of control and 112 % of control
dose: 300.0 mg/kg/injection, schedule: Q04DX003 (ip), vehicle: sodium bicarbonate
  T/C: 78 % of control

## CCCCCCCC1C(=O)OC2CC3C(C)=CC(=O)C(O)C3(C)C3C4(O)OCC23C1C(C)C4O (configuration not stated)
dose: 10.0 mg/kg/injection, schedule: Q04DX003 (ip), vehicle: Klucel (hydroxypropylcellulose) (HPC)
  T/C: 89 % of control
dose: 20.0 mg/kg/injection, schedule: Q04DX003 (ip), vehicle: Klucel (hydroxypropylcellulose) (HPC)
  T/C: 107 % of control
dose: 40.0 mg/kg/injection, schedule: Q04DX003 (ip), vehicle: Klucel (hydroxypropylcellulose) (HPC)
  T/C: 53 % of control

## CC(CNC(=O)C12CC3CC(CC(C3)C1)C2)NC(=O)C12CC3CC(CC(C3)C1)C2 (configuration not stated)
dose: 75.0 mg/kg/injection, schedule: Q04DX003 (ip), vehicle: DMSO
  T/C: 82 % of control
dose: 150.0 mg/kg/injection, schedule: Q04DX003 (ip), vehicle: DMSO
  T/C: 95 % of control
dose: 300.0 mg/kg/injection, schedule: Q04DX003 (ip), vehicle: DMSO
  T/C: 106 % of control
dose: 600.0 mg/kg/injection, schedule: Q04DX003 (ip), vehicle: DMSO
  T/C: 105 % of control

## C/C(=N\NC(=O)c1ccccc1O)c1cccc(/C(C)=N/NC(=O)c2ccccc2O)n1
dose: 25.0 mg/kg/injection, schedule: Q04DX003 (ip), vehicle: saline
  T/C: 109 % of control
dose: 50.0 mg/kg/injection, schedule: Q04DX003 (ip), vehicle: saline
  T/C: 77 % of control
dose: 100.0 mg/kg/injection, schedule: Q04DX003 (ip), vehicle: saline
  T/C: 100 % of control

## CC1(C)N=C(N)N=C(N)N1c1ccc(F)c(C(F)(F)F)c1
dose: 6.25 mg/kg/injection, schedule: Q01DX010 (sc), vehicle: saline
  T/C: 97 % of control
dose: 12.5 mg/kg/injection, schedule: Q01DX010 (sc), vehicle: saline
  T/C: 85 % of control
dose: 25.0 mg/kg/injection, schedule: Q01DX010 (sc), vehicle: saline
  T/C: 64 % of control

## COc1cc(C(C)(C)C)cc(OC)c1C(O)(c1c(OC)cc(C(C)(C)C)cc1OC)c1c(OC)cc(C(C)(C)C)cc1OC
dose: 200.0 mg/kg/injection, schedule: Q04DX003 (sc), vehicle: saline with Tween-80
  T/C: 93 % of control
dose: 400.0 mg/kg/injection, schedule: Q04DX003 (sc), vehicle: saline with Tween-80
  T/C: 88 % of control
dose: 800.0 mg/kg/injection, schedule: Q04DX003 (sc), vehicle: saline with Tween-80
  T/C: 96 % of control
dose: 1600.0 mg/kg/injection, schedule: Q04DX003 (sc), vehicle: saline with Tween-80
  T/C: 100 % of control

## CCC(/C=C/C1OC(=O)C=CC1C)=C\C(C)C/C=C/C(C)=C/C(C)C(=O)C(C)C(O)C(C)C/C(C)=C/C(=O)O (configuration not stated)
dose: 1.0 mg/kg/injection, schedule: Q04DX003 (ip), vehicle: saline + alcohol
  T/C: 114 % of control
dose: 2.0 mg/kg/injection, schedule: Q04DX003 (ip), vehicle: saline + alcohol
  T/C: 109 % of control
dose: 4.0 mg/kg/injection, schedule: Q04DX003 (ip), vehicle: saline + alcohol
  T/C: 71 % of control
dose: 75.0 micrograms/kg/injection, schedule: Q04DX003 (ip), vehicle: saline + alcohol
  T/C: 119 % of control
dose: 150.0 micrograms/kg/injection, schedule: Q04DX003 (ip), vehicle: saline + alcohol
  T/C: 114 % of control
dose: 300.0 micrograms/kg/injection, schedule: Q04DX003 (ip), vehicle: saline + alcohol
  T/C: 107 % of control
dose: 600.0 micrograms/kg/injection, schedule: Q04DX003 (ip), vehicle: saline + alcohol
  T/C: 102 % of control

## CCC1(O)C(=O)OCc2c1cc1n(c2=O)Cc2cc3cc(N)ccc3nc2-1 (configuration not stated)
dose: 1.88 mg/kg/injection, schedule: Q04DX003 (ip), vehicle: suspension in saline
  T/C: 5 % of control
dose: 3.75 mg/kg/injection, schedule: Q04DX003 (ip), vehicle: suspension in saline
  T/C: 1 % of control
dose: 7.5 mg/kg/injection, schedule: Q04DX003 (ip), vehicle: suspension in saline
  T/C: -100 % of control
dose: 15.0 mg/kg/injection, schedule: Q04DX003 (ip), vehicle: suspension in saline
  T/C: -100 % of control

## Cc1ccc(NN=O)nc1
dose: 9.35 mg/kg/injection, schedule: Q04DX003 (ip), vehicle: water
  T/C: 11 % of control
dose: 9.37 mg/kg/injection, schedule: Q04DX003 (ip), vehicle: water
  T/C: -9 % of control
dose: 18.7 mg/kg/injection, schedule: Q04DX003 (ip), vehicle: water
  T/C: 6 % of control
dose: 18.75 mg/kg/injection, schedule: Q04DX003 (ip), vehicle: water
  T/C: -21 % of control
dose: 37.5 mg/kg/injection, schedule: Q04DX003 (ip), vehicle: water
  T/C: -69 % of control

## COc1cccc2c1C(=N)c1c(O)c3c(c(O)c1C2=O)C[C@@](O)(C(C)=O)C[C@@H]3OC1CC(N)C(O)C(C)O1 (some centres not stated)
dose: 4.0 mg/kg/injection, schedule: Q01DX010 (sc), vehicle: water
  T/C: 51 % of control
dose: 8.0 mg/kg/injection, schedule: Q01DX010 (sc), vehicle: water
  T/C: 56 % of control
dose: 16.0 mg/kg/injection, schedule: Q01DX010 (sc), vehicle: water
  T/C: 56 % of control

## NC(CNC(=O)CBr)C(=O)O (configuration not stated)
dose: 37.5 mg/kg/injection, schedule: Q04DX003 (sc), vehicle: water
  T/C: 82 % of control
dose: 150.0 mg/kg/injection, schedule: Q04DX003 (sc), vehicle: water
  T/C: 54 % of control

## O=C(CN1CCOCC1)Nc1nc(-c2ccc(Cl)cc2)cs1
dose: 150.0 mg/kg/injection, schedule: Q04DX003 (ip), vehicle: other
  T/C: 96 % of control
dose: 600.0 mg/kg/injection, schedule: Q04DX003 (ip), vehicle: other
  T/C: 71 % of control
dose: 1200.0 mg/kg/injection, schedule: Q04DX003 (ip), vehicle: other
  T/C: 60 % of control

## COC1/C=C/C=C(/C)Cc2cc(O)c(Cl)c(c2)N(C)C(=O)CC(OC(=O)C(C)C)C2(C)OC2C(C)C2CC1(O)NC(=O)O2 (configuration not stated)
dose: 1.0 mg/kg/injection, schedule: Q04DX003 (sc), vehicle: saline + alcohol
  T/C: 70 % of control
dose: 2.0 mg/kg/injection, schedule: Q04DX003 (sc), vehicle: saline + alcohol
  T/C: 33 % of control
dose: 4.0 mg/kg/injection, schedule: Q04DX003 (sc), vehicle: saline + alcohol
  T/C: -47 % of control
dose: 8.0 mg/kg/injection, schedule: Q04DX003 (sc), vehicle: saline + alcohol
  T/C: -100 % of control

## COC1C(OC(=O)/C=C/C=C/C=C/C=C/C(=O)O)CCC2(CO2)C1C1(C)OC1CC=C(C)C (configuration not stated)
dose: 150.0 mg/kg/injection, schedule: Q04DX003 (sc), vehicle: saline
  T/C: 102 % of control
dose: 300.0 mg/kg/injection, schedule: Q04DX003 (sc), vehicle: saline
  T/C: 96 % of control
dose: 600.0 mg/kg/injection, schedule: Q04DX003 (sc), vehicle: saline
  T/C: 62 % of control

## CN(C)CCCOc1nc2c(c(=O)n(C)c(=O)n2C)n1C (tested in a mixture with another compound)
dose: 37.5 mg/kg/injection, schedule: Q04DX003 (ip), vehicle: Klucel (hydroxypropylcellulose) (HPC)
  T/C: 75 % of control
dose: 75.0 mg/kg/injection, schedule: Q04DX003 (ip), vehicle: Klucel (hydroxypropylcellulose) (HPC)
  T/C: 63 % of control and 65 % of control
dose: 150.0 mg/kg/injection, schedule: Q04DX003 (ip), vehicle: Klucel (hydroxypropylcellulose) (HPC)
  T/C: 58 % of control and 62 % of control
dose: 300.0 mg/kg/injection, schedule: Q04DX003 (ip), vehicle: Klucel (hydroxypropylcellulose) (HPC)
  T/C: 19 % of control and 20 % of control

## CC[C@@H](C)[C@H]([C@H](CC(=O)N1CCC[C@@H]1[C@@H](OC)[C@H](C)C(=O)N[C@H](Cc1ccccc1)c1nccs1)OC)N(C)C(=O)[C@H](NC(=O)[C@@H](C(C)C)N(C)C)C(C)C
dose: 13.0 micrograms/kg/injection, schedule: Q04DX003 (ip), vehicle: saline + alcohol
  T/C: 61 % of control
dose: 26.0 micrograms/kg/injection, schedule: Q04DX003 (ip), vehicle: saline + alcohol
  T/C: 50 % of control
dose: 52.0 micrograms/kg/injection, schedule: Q04DX003 (ip), vehicle: saline + alcohol
  T/C: 14 % of control

## CC(C)(C)c1ccc(C(=O)N2CCOC23CCCCC3)cc1
dose: 150.0 mg/kg/injection, schedule: Q04DX003 (ip), vehicle: saline with Tween-80
  T/C: 69 % of control and 87 % of control
dose: 300.0 mg/kg/injection, schedule: Q04DX003 (ip), vehicle: saline with Tween-80
  T/C: 96 % of control and 112 % of control
dose: 600.0 mg/kg/injection, schedule: Q04DX003 (ip), vehicle: saline with Tween-80
  T/C: 80 % of control and 88 % of control
dose: 1200.0 mg/kg/injection, schedule: Q04DX003 (ip), vehicle: saline with Tween-80
  T/C: 95 % of control and 106 % of control

From PubChem BioAssay AID298 (DTP/NCI, 2004)
